Measured values published in ChEMBL document CHEMBL1909046, “DrugMatrix in vitro pharmacology data”.

What was measured:
[1] = molecular target: T1, Vasoactive intestinal polypeptide receptor 1 (Homo sapiens, UniProt P32241); format: cell membranes, Membrane; details: ht-29; note: in other assays of this panel Not Active means under 50% inhibition at 10 µM
T1 sequence (P32241 whole entry): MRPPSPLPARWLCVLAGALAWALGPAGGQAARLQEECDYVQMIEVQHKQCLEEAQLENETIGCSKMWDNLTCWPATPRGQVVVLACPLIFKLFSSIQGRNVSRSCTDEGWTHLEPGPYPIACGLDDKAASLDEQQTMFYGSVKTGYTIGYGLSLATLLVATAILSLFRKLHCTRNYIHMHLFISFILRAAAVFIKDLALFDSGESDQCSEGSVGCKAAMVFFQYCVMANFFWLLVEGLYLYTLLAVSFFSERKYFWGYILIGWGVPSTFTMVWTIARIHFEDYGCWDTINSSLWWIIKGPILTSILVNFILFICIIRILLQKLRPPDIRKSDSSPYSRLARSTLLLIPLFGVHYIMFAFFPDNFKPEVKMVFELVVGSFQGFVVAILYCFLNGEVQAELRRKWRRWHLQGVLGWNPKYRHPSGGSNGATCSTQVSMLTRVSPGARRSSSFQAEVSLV

[2] = molecular target: Melanocortin receptor 3 (Homo sapiens, UniProt P41968); format: cell membranes, Membrane; details: hek293; note: in other assays of this panel Not Active means under 50% inhibition at 10 µM
[3] = molecular target: T2, Interstitial collagenase (Homo sapiens, UniProt P03956); format: tissue-based, Rheumatoid synovial fibroblasts;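 note: MMP-1 enzyme inhibition assay using a peptide substrate; in other assays of this panel Not Active means under 50% inhibition at 10 µM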
T2 sequence (P03956 whole entry): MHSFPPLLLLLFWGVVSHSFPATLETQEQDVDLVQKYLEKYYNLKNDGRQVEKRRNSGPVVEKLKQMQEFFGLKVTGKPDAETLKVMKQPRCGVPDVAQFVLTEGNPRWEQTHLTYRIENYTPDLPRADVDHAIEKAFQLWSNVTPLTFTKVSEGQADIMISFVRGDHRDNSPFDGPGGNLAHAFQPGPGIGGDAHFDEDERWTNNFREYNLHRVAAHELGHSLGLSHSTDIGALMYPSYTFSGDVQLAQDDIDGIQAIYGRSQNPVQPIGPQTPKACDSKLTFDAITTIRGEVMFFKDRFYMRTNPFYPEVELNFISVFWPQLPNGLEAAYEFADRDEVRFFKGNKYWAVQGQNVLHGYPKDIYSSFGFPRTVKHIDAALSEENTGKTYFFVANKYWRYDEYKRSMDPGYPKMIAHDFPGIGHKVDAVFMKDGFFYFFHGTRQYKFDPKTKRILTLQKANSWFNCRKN

[4] = molecular target: Acetylcholinesterase (Homo sapiens, UniProt P22303); assay: DRUGMATRIX: Acetylcholinesterase enzyme inhibition (substrate: acetylthiocholine); format: cell-based, HEK293; details: Not Active = under 50% inhibition at 10 µM
[5] = molecular target: Estrogen receptor beta (Homo sapiens, UniProt Q92731); details: sf9; note: in other assays of this panel Not Active means under 50% inhibition at 10 µM
[6] = molecular target: T3, Glucocorticoid receptor (Homo sapiens, UniProt P04150); details: hela s3; note: in other assays of this panel Not Active means under 50% inhibition at 10 µM
T3 sequence (P04150 whole entry): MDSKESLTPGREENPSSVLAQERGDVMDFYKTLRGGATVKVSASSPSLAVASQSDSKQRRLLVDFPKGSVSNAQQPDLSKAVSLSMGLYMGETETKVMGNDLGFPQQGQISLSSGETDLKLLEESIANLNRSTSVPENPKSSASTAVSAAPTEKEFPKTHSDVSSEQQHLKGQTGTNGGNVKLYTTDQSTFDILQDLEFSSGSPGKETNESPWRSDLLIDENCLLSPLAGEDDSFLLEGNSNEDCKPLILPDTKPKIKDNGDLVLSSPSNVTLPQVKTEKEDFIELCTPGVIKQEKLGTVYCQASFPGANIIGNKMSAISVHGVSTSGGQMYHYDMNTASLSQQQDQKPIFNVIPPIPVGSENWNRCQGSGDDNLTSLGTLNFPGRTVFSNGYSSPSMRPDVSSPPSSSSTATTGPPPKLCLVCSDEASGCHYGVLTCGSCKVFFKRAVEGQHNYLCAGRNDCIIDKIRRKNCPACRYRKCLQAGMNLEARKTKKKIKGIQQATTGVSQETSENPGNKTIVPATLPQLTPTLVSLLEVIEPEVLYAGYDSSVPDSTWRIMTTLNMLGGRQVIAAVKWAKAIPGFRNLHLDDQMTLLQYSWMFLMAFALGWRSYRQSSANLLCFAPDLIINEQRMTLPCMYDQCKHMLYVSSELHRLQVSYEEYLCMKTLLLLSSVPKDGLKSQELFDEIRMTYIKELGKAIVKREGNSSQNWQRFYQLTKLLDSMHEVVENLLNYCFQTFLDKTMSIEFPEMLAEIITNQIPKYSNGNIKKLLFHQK

Acetylcholinesterase, sequence (P22303 whole entry): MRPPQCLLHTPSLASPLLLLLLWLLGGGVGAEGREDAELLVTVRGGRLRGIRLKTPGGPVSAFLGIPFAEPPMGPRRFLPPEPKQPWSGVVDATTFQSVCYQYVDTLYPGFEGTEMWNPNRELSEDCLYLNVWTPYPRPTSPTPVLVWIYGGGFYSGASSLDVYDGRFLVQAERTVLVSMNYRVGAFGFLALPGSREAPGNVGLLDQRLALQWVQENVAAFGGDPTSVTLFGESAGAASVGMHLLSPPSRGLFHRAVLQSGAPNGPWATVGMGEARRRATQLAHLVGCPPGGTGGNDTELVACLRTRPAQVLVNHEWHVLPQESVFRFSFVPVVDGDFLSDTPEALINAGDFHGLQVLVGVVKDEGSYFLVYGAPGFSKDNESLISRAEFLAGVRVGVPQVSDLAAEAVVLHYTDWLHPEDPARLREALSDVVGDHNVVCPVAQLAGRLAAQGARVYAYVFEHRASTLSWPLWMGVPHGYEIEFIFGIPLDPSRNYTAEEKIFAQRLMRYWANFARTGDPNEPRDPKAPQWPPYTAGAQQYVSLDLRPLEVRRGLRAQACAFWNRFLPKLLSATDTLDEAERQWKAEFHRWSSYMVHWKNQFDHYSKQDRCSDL
Melanocortin receptor 3, sequence (P41968 whole entry): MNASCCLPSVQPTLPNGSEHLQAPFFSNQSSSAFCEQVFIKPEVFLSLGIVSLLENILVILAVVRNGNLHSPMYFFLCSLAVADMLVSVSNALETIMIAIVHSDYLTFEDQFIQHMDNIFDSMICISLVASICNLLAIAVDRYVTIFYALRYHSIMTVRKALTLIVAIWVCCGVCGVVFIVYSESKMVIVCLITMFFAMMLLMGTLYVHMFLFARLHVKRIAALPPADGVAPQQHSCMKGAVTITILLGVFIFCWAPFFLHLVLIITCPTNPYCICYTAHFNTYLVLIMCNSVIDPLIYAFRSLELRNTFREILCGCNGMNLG
Estrogen receptor beta, sequence (Q92731 whole entry): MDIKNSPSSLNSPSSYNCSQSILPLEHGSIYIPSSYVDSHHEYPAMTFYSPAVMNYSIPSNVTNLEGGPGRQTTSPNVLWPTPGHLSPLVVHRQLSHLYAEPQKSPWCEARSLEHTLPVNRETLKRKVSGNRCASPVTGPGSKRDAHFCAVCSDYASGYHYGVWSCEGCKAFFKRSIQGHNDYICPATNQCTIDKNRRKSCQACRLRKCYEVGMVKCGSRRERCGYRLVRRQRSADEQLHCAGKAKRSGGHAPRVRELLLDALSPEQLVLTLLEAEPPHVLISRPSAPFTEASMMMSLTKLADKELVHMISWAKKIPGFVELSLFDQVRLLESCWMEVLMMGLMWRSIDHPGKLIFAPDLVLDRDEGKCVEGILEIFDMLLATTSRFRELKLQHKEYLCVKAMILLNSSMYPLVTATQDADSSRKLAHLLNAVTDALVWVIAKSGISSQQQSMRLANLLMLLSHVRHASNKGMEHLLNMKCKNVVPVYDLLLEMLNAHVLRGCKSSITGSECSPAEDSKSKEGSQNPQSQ

| Compound | IC50 [1] | IC50 [2] | IC50 [3] | IC50 ([4]; hek293) | IC50 [5] | IC50 [6] | Ki [1] | Ki [2] | Ki [3] | Ki ([4]; hek293) | Ki [5] | Ki [6] | IC50 ([4]; read-out: IC50) [µM] |
| --- | --- | --- | --- | --- | --- | --- | --- | --- | --- | --- | --- | --- | --- |
| CC(C(=O)O)c1ccc(-c2ccccc2)c(F)c1 (configuration not stated) [FLURBIPROFEN] | Not Active | Not Active | Not Active | Not Active | Not Active | Not Active | – | – | – | – | – | – | – |
| CCCCC1C(=O)N(c2ccccc2)N(c2ccccc2)C1=O [PHENYLBUTAZONE] | Not Active | Not Active | Not Active | Not Active | Not Active | Not Active | – | – | – | – | – | – | – |
| CCC(=O)O[C@H]1[C@H](O[C@@H]2[C@@H](C)[C@H](O[C@H]3C[C@@](C)(OC)[C@@H](O)[C@H](C)O3)[C@@H](C)C(=O)O[C@H](CC)[C@@](C)(O)[C@H](O)[C@@H](C)C(=O)[C@H](C)C[C@@]2(C)O)O[C@H](C)C[C@@H]1N(C)C [ERYTHROMYCIN PROPIONATE] | Not Active | Not Active | Not Active | Not Active | Not Active | Not Active | – | – | – | – | – | – | – |
| C=C1/C(=C\C=C2/CCC[C@]3(C)[C@@H]([C@H](C)CCCC(C)C)CC[C@@H]23)C[C@@H](O)C[C@@H]1O [ALFACALCIDOL] | Not Active | Not Active | Not Active | Not Active | Not Active | Not Active | – | – | – | – | – | – | – |
| POLYVINYL ALCOHOL | Not Active | Not Active | Not Active | Not Active | Not Active | Not Active | Not Active | Not Active | Not Active | Not Active | Not Active | Not Active | – |
| COBALT(II) ACETYLACETONATE | Not Active | Not Active | Not Active | Not Active | Not Active | Not Active | Not Active | Not Active | Not Active | Not Active | Not Active | Not Active | – |
| Nc1nc(N)nc(NC2CC2)n1 [CYROMAZINE] | Not Active | Not Active | Not Active | Not Active | Not Active | Not Active | – | – | – | – | – | – | – |
| CN(C(=O)CCCOc1ccc2[nH]c(=O)ccc2c1)C1CCCCC1 [CILOSTAMIDE] | Not Active | Not Active | Not Active | Not Active | Not Active | Not Active | – | – | – | – | – | – | – |
| CC(C)(Oc1ccc(C2CC2(Cl)Cl)cc1)C(=O)O (configuration not stated) [CIPROFIBRATE] | Not Active | Not Active | Not Active | Not Active | Not Active | Not Active | – | – | – | – | – | – | – |
| Cc1cn[nH]c1 [FOMEPIZOLE] | Not Active | Not Active | Not Active | Not Active | Not Active | Not Active | – | – | – | – | – | – | – |
| CCc1oc2ccccc2c1C(=O)c1cc(Br)c(O)c(Br)c1 [BENZBROMARONE] | Not Active | Not Active | Not Active | Not Active | Not Active | Not Active | – | – | – | – | – | – | – |
| CN1C[C@H](C(=O)N[C@]2(C)O[C@@]3(O)[C@@H]4CCCN4C(=O)[C@H](Cc4ccccc4)N3C2=O)C[C@@H]2c3cccc4[nH]cc(c34)C[C@H]21 [DIHYDROERGOTAMINE] | Not Active | Not Active | Not Active | Not Active | Not Active | Not Active | – | – | – | – | – | – | – |
| CNC(=C[N+](=O)[O-])NCCSCc1csc(CN(C)C)n1 [NIZATIDINE] | Not Active | Not Active | Not Active | – | Not Active | Not Active | – | – | – | – | – | – | 5.61 |
| Cc1cnc(C(=O)NCCc2ccc(S(=O)(=O)NC(=O)NC3CCCCC3)cc2)cn1 [GLIPIZIDE] | Not Active | Not Active | Not Active | Not Active | Not Active | Not Active | – | – | – | – | – | – | – |
| CC(CCc1ccc(O)cc1)NCCc1ccc(O)c(O)c1 (configuration not stated) [DOBUTAMINE] | Not Active | Not Active | Not Active | Not Active | Not Active | Not Active | – | – | – | – | – | – | – |
| Cc1cccc(Nc2cc(Cl)nc(SCC(=O)O)n2)c1C [PIRINIXIC ACID] | Not Active | Not Active | Not Active | Not Active | Not Active | Not Active | – | – | – | – | – | – | – |
| INSULIN HUMAN | Not Active | Not Active | Not Active | Not Active | Not Active | Not Active | Not Active | Not Active | Not Active | Not Active | Not Active | Not Active | – |
| CC(=O)OCC(CCn1cnc2cnc(N)nc21)COC(C)=O [FAMCICLOVIR] | Not Active | Not Active | Not Active | Not Active | Not Active | Not Active | – | – | – | – | – | – | – |
| O=P1(N(CCCl)CCCl)NCCCO1 (configuration not stated) [CYCLOPHOSPHAMIDE ANHYDROUS] | Not Active | Not Active | Not Active | Not Active | Not Active | Not Active | – | – | – | – | – | – | – |
| CC(C)(Sc1cc(C(C)(C)C)c(O)c(C(C)(C)C)c1)Sc1cc(C(C)(C)C)c(O)c(C(C)(C)C)c1 [PROBUCOL] | Not Active | Not Active | Not Active | Not Active | Not Active | Not Active | – | – | – | – | – | – | – |
| CO[C@@]1(NC(=O)CSCC#N)C(=O)N2C(C(=O)O)=C(CSc3nnnn3C)CS[C@@H]21 [CEFMETAZOLE] | Not Active | Not Active | Not Active | Not Active | Not Active | Not Active | – | – | – | – | – | – | – |
| COc1cc(CNC(=O)CCCC/C=C/C(C)C)ccc1O [CAPSAICIN] | Not Active | Not Active | Not Active | Not Active | Not Active | Not Active | – | – | – | – | – | – | – |
| CC(C)(C)c1ccc(S(=O)(=O)/C=C/C#N)cc1 [BAY-11-7085] | Not Active | Not Active | Not Active | Not Active | Not Active | Not Active | – | – | – | – | – | – | – |
| CC[C@H](C)C(=O)O[C@H]1C[C@@H](C)C=C2C=C[C@H](C)[C@H](CC[C@@H]3C[C@@H](O)CC(=O)O3)[C@H]21 [LOVASTATIN] | Not Active | Not Active | Not Active | Not Active | Not Active | Not Active | – | – | – | – | – | – | – |
| CN1C(=O)CN=C(c2ccccc2)c2cc(Cl)ccc21 [DIAZEPAM] | Not Active | Not Active | Not Active | Not Active | – | Not Active | – | – | – | – | – | – | – |
| O=C(O)Cc1ccc(-c2ccccc2)cc1 [FELBINAC] | Not Active | Not Active | Not Active | Not Active | – | Not Active | – | – | – | – | – | – | – |
| CC[C@H]1OC(=O)[C@H](C)[C@@H](O[C@H]2C[C@@](C)(OC)[C@@H](O)[C@H](C)O2)[C@H](C)[C@@H](O[C@@H]2O[C@H](C)C[C@H](N(C)C)[C@H]2O)[C@](C)(OC)C[C@@H](C)C(=O)[C@H](C)[C@@H](O)[C@]1(C)O [CLARITHROMYCIN] | Not Active | Not Active | Not Active | Not Active | – | Not Active | – | – | – | – | – | – | – |
